From patent US20220380347A1, “INHIBITORS OF CYSTEINE PROTEASES AND METHODS OF USE THEREOF” (Pardes Biosciences, Inc., priority 2020, published 2022)
Read-outs that look alike come from different tables or passages of the source.

Legend:
[1] = target: 229E Mpro (Human coronavirus 229E, UniProt P0C6X1); experiment: 229E Mpro enzymatic assay (standard methods, SARS-CoV2 Mpro assay given as exemplary); format: biochemical, human coronavirus (HCov) 229E
Procedure, shortened: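 IC50 for 229E Mpro by standard methods; exemplary SARS-CoV-2 protocol used C-His6-tagged Mpro from E. coli, 25 nM enzyme, 25 μM substrate (Km 13.5 μM), in Tris-HCl pH 7.3, NaCl, EDTA, TCEP, 0.1% BSA. Inhibition normalised to no-compound and full-effect controls; four-parameter fit.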

[2] = target: COVID-19 (nCoV-2019, SARS-CoV2) Mpro (Severe acute respiratory syndrome coronavirus 2, UniProt P0DTD1); experiment: COVID-19 (nCoV-2019, SARS-CoV2) Mpro enzymatic assay; format: biochemical; details: 25 nM Mpro, 25 μM substrate; read-out: COVID-19 Mpro IC50
[3] = tested on: HCov OC43; experiment: HCoV OC43 cytopathic effect (CPE) assay, CellTiter Glo; format: cell-based, human coronavirus (HCov) OC43
[4] = Betacoronavirus 1, OC43, read-out: OC43 IC50 (uM) MEDIAN, median
[5] = read-out: OC43 IC50 (uM) MEDIAN, median

Chain of 229E Mpro (P0C6X1 2966-3267): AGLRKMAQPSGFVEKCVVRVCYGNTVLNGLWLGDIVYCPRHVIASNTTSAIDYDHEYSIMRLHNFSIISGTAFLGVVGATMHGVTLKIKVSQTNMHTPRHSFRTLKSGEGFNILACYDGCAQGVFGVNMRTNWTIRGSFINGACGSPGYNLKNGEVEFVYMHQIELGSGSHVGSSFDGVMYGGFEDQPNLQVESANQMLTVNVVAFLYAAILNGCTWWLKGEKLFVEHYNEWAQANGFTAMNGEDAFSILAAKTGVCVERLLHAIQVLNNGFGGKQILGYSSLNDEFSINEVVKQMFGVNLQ

In the case of `CC(C)(C)c1ccc(N(C(=O)[C@H]2CCCN2C#N)C(C(=O)N2CC(O)C2)c2cccnc2)cc1` (stereo partly drawn) [Compound 950, (2R)—N-(4-(tert-butyl)phenyl)-1-cyano-N-(2-(3-hydroxyazetidin-1-yl)-2-oxo-1-(pyridin-3-yl)ethyl)pyrrolidine-2-carboxamide], the EC50 ([1]; 229E Mpro EC50) is reported as 2000 to 10000 nM, the IC50 [2] is reported as 2000 to 10000 nM and the IC50 [3, 4] is reported as 10 to 30 µM.
`CO[C@@H]1C[C@H](C(=O)N(c2ccc(S(F)(F)(F)(F)F)cc2)C(C)(C(=O)NC2CCC(F)(F)CC2)c2cccnc2)N(C#N)C1` (single isomer, unassigned) [1259 Isomer 1] was tested, and the EC50 ([1]; 229E Mpro EC50) was < 2000 nM, the IC50 [2] was 2000 to 10000 nM and the IC50 [3, 4] was 2 to 10 µM.
With `C[C@@]1(O)C[C@H](C(=O)N(c2ccc(S(F)(F)(F)(F)F)cc2)C(C(=O)NC2CCC(F)(F)CC2)c2cccnc2F)N(C#N)C1` (single isomer, unassigned) [1158 Isomer 1] the EC50 ([1]; 229E Mpro EC50) was < 2000 nM, the IC50 [2] was < 2000 nM and the IC50 [3, 4] was < 2 µM.
For `Cc1c[nH]c2cc(N(C(=O)[C@H]3C[C@@H](O)CN3C#N)C(C(=O)NC3CCC(F)(F)CC3)c3cncc(F)c3)ccc12` (single isomer, unassigned) [Compound 747b Isomer 2], the EC50 ([1]; read-out: 229E Mpro EC50) was < 2000 nM, the IC50 [2] was 2000 to 10000 nM and the IC50 [3, 5] was 2 to 10 µM.
`CC1(O)C[C@H](C(=O)N(c2ccc(C(C)(C)C)cc2)C(C(=O)NC2CCCCC2)c2cccnc2)N(C#N)C1` (single isomer, unassigned) [Compound 284 Isomer 1] was tested, and the EC50 ([1]; read-out: 229E Mpro EC50) was < 2000 nM, the IC50 [2] was 2000 to 10000 nM and the IC50 ([3]; read-out: OC43 IC50 (uM) MEDIAN, median, listed as 284 Isomer 1) was 10 to 30 µM.
Work on `CO[C@@H]1C[C@H](C(=O)N(c2ccc(C(C)(C)C)cc2)C(C)(C(=O)NC2CCC(F)(F)CC2)c2cccnc2)N(C#N)C1` (single isomer, unassigned) [1232 Isomer 1] yielded an EC50 ([1]; 229E Mpro EC50) of 2000 to 10000 nM, an IC50 [2] of 2000 to 10000 nM and an IC50 [3, 4] of 2 to 10 µM.
`N#CN1C[C@@H](OC(F)F)C[C@@H]1C(=O)N(c1ccc(S(F)(F)(F)(F)F)cc1)C(C(=O)NC1CCC(F)(F)CC1)c1cncc(F)c1` (single isomer, unassigned) [Compound 823a Isomer 1] was tested, and the EC50 ([1]; 229E Mpro EC50) was < 2000 nM, the IC50 [2] was < 2000 nM and the IC50 [3, 4] was < 2 µM.
For `CO[C@@H]1C[C@H](C(=O)N(c2ccc(S(F)(F)(F)(F)F)cc2)C(C(=O)NC(C)C2CCCCN2C(=O)OC(C)(C)C)c2cccnc2)N(C#N)C1` (single isomer, unassigned) [1303 Isomer 2.2], the EC50 ([1]; 229E Mpro EC50) was < 2000 nM, the IC50 [2] was < 2000 nM and the IC50 [3, 5] was < 2 µM.
With `N#CN1CC(=O)NCC1C(=O)N(c1ccc(S(F)(F)(F)(F)F)cc1)C(C(=O)NC1CCC(F)(F)CC1)c1cncc(F)c1` (single isomer, unassigned) [Compound 1160 Isomer 2, 1-cyano-N-[2-[(4,4-difluorocyclohexyl)amino]-1-(5-fluoro-3-pyridyl)-2-oxo-ethyl]-5-oxo-N-[4-(pentafluoro-λ6-sulfanyl)phenyl]piperazine-2-carboxamide] the EC50 ([1]; 229E Mpro EC50) was 2000 to 10000 nM, the IC50 [2] was 2000 to 10000 nM and the IC50 ([3]; read-out: OC43 IC50 (uM) MEDIAN, median, listed as 1160 Isomer 2) was 2 to 10 µM.
For `CO[C@@H]1C[C@H](C(=O)N(c2ccc(S(F)(F)(F)(F)F)cc2)C(C(=O)NC2CCC(F)(F)CC2)c2cncc(F)c2)N(C#N)C1` (single isomer, unassigned) [1265 Isomer 2], the EC50 ([1]; read-out: 229E Mpro EC50) was < 2000 nM, the IC50 [2] was < 2000 nM and the IC50 [3, 5] was < 2 µM.
In the case of `N#CN1C[C@H](O)C[C@@H]1C(=O)N(c1ccc(C2(C(F)(F)F)CC2)cc1)C(C(=O)NC1CCCCC1)c1cccnc1` (single isomer, unassigned) [735 Isomer 2], the EC50 ([1]; read-out: 229E Mpro EC50) is reported as < 2000 nM, the IC50 [2] is reported as 2000 to 10000 nM and the IC50 [3, 5] is reported as 2 to 10 µM.
`N#CN1C[C@@H]2C[C@@H]2[C@@H]1C(=O)N(c1ccc(S(F)(F)(F)(F)F)cc1)C(C(=O)NC1CCC(F)(F)CC1)c1cncc(F)c1` (single isomer, unassigned) [1096 Isomer 2] was tested, and the EC50 ([1]; read-out: 229E Mpro EC50) was < 2000 nM, the IC50 [2] was < 2000 nM and the IC50 [3, 5] was < 2 µM.
`CO[C@@H]1C[C@H](C(=O)N(c2ccc(S(F)(F)(F)(F)F)cc2)C(C)(C(=O)NC2CCC(F)(F)CC2)c2cnccn2)N(C#N)C1` (single isomer, unassigned) [1299 Isomer 2] was tested, and the EC50 ([1]; read-out: 229E Mpro EC50) was < 2000 nM, the IC50 [2] was < 2000 nM and the IC50 [3, 5] was < 2 µM.
`C[C@H](NC(=O)C(c1cnccn1)N(C(=O)c1ccco1)c1ccc(-c2ccccc2)cc1)c1ccccc1` (single isomer, unassigned) [1355 Isomer 2] was tested, and the EC50 ([1]; read-out: 229E Mpro EC50) was 2000 to 10000 nM, the IC50 [2] was < 2000 nM and the IC50 [3, 5] was > 30 µM.
In the case of `CO[C@@H]1C[C@H](C(=O)N(c2ccc(S(F)(F)(F)(F)F)cc2)C(C(=O)NC2CCOC(C)(C)C2)c2cccnc2)N(C#N)C1` (single isomer, unassigned) [1165 Isomer 1], the EC50 ([1]; 229E Mpro EC50) is reported as < 2000 nM, the IC50 [2] is reported as < 2000 nM and the IC50 [3, 4] is reported as < 2 µM.
For `N#CN1C[C@H](O)C[C@@H]1C(=O)N(c1ccc(C2(C(F)(F)F)CC2)cc1)C(C(=O)NC1CCCCC1)c1cccnc1` (single isomer, unassigned) [735 Isomer 1], the EC50 ([1]; 229E Mpro EC50) was < 2000 nM, the IC50 [2] was < 2000 nM and the IC50 [3, 4] was < 2 µM.
`CC(C)(C)c1ccc(N(C(=O)[C@H]2CCCN2C#N)C(C(=O)NC2CCCCC2)c2cncc(F)c2)cc1` (single isomer, unassigned) [475 Isomer 1] was tested, and the EC50 ([1]; 229E Mpro EC50) was < 2000 nM, the IC50 [2] was < 2000 nM and the IC50 [3, 5] was 2 to 10 µM.
`CO[C@@H]1C[C@H](C(=O)N(c2ccc(S(F)(F)(F)(F)F)cc2F)C(C(=O)NC2CCC(F)(F)CC2)c2cccnc2)N(C#N)C1` (single isomer, unassigned) [1288 Isomer 1] was tested, and the EC50 ([1]; 229E Mpro EC50) was < 2000 nM, the IC50 [2] was < 2000 nM and the IC50 [3, 4] was < 2 µM.
For `N#CN1C[C@H](F)C[C@@H]1C(=O)N(c1ccc(S(F)(F)(F)(F)F)cc1)C(C(=O)NC1CCC(F)(F)CC1)c1cncc(F)c1` (single isomer, unassigned) [Compound 1098 Isomer 1], the EC50 ([1]; 229E Mpro EC50) was < 2000 nM, the IC50 [2] was 2000 to 10000 nM and the IC50 [3, 4] was 2 to 10 µM.
With `CO[C@@H]1C[C@H](C(=O)N(c2ccc(S(F)(F)(F)(F)F)cc2)C(C(=O)N2CCN(C(=O)OC(C)(C)C)CC2)c2cccnc2)N(C#N)C1` (stereo partly drawn) [Compound 1149b, tert-butyl-4-[2-[N-[(2R,4R)-1-cyano-4-methoxy-pyrrolidine-2-carbonyl]-4-(pentafluoro-λ6-sulfanyl)anilino]-2-(3-pyridyl)acetyl]piperazine-1-carboxylate] the EC50 ([1]; 229E Mpro EC50) was < 2000 nM, the IC50 [2] was < 2000 nM and the IC50 [3, 4] was < 2 µM.
`CC(C(=O)NC1CCC(F)(F)CC1)(c1cccnc1)N(C(=O)[C@H]1C[C@@](C)(O)CN1C#N)c1ccc(S(F)(F)(F)(F)F)cc1` (stereo partly drawn) [Compound 1077, (2R,4R)-1-cyano-N-[2-[(4,4-difluorocyclohexyl)amino]-1-methyl-2-oxo-1-(3-pyridyl)ethyl]-4-hydroxy-4-methyl-N-[4-(pentafluoro-λ^6-sulfanyl)phenyl]pyrrolidine-2-carboxamide] was tested, and the EC50 ([1]; 229E Mpro EC50) was < 2000 nM, the IC50 [2] was < 2000 nM and the IC50 [3, 4] was < 2 µM.
`CC1(C)CCNc2cc(N(C(=O)[C@H]3C[C@@](C)(O)CN3C#N)C(C(=O)NC3CCC(F)(F)CC3)c3cncc(F)c3)ccc21` (single isomer, unassigned) [Compound 1127 Isomer 1] was tested, and the EC50 ([1]; 229E Mpro EC50) was < 2000 nM, the IC50 [2] was < 2000 nM and the IC50 [3, 5] was < 2 µM.
With `CC(C)(C)c1ccc(N(C(=O)[C@H]2C[C@@](C)(O)CN2C#N)C(C(=O)NC2CCOCC2)c2cccnc2)cc1` (single isomer, unassigned) [1142 Isomer 1] the EC50 ([1]; 229E Mpro EC50) was < 2000 nM, the IC50 [2] was < 2000 nM and the IC50 [3, 5] was < 2 µM.
In the case of `C[C@H](NC(=O)C(c1cnccc1C(F)(F)F)N(C(=O)[C@H]1C[C@@](C)(O)CN1C#N)c1ccc(S(F)(F)(F)(F)F)cc1)c1ccccc1` (stereo partly drawn) [Compound 1347, (2R,4R)-1-cyano-4-hydroxy-4-methyl-N-[2-oxo-2-[[(1S)-1-phenylethyl]amino]-1-[4-(trifluoromethyl)-3-pyridyl]ethyl]-N-[4-(pentafluoro-λ6-sulfanyl)phenyl]pyrrolidine-2-carboxamide], the EC50 ([1]; 229E Mpro EC50) is reported as < 2000 nM, the IC50 [2] is reported as < 2000 nM and the IC50 [3, 4] is reported as < 2 µM.
With `CC1(C)CCNc2cc(N(C(=O)[C@H]3C[C@@](C)(O)CN3C#N)C(C(=O)NC3CCC(F)(F)CC3)c3cncc(F)c3)ccc21` (single isomer, unassigned) [Compound 1127 Isomer 2] the EC50 ([1]; read-out: 229E Mpro EC50) was < 2000 nM, the IC50 [2] was < 2000 nM and the IC50 [3, 4] was < 2 µM.
With `CO[C@@H]1C[C@H](C(=O)N(c2ccc(S(F)(F)(F)(F)F)cc2)C(C(=O)NC2CC3CCC(C2)O3)c2cccnc2)N(C#N)C1` (single isomer, unassigned) [1187 Isomer 2] the EC50 ([1]; read-out: 229E Mpro EC50) was < 2000 nM, the IC50 [2] was < 2000 nM and the IC50 [3, 5] was < 2 µM.
In the case of `CC(C)(C)c1ccc(N(C(=O)[C@H]2C[C@@H](O)CN2C#N)C(C(=O)NCc2cccnc2)c2cccnc2)cc1` (single isomer, unassigned) [643 Isomer 2], the EC50 ([1]; read-out: 229E Mpro EC50) is reported as < 2000 nM, the IC50 [2] is reported as 2000 to 10000 nM and the IC50 [3, 5] is reported as 2 to 10 µM.
With `CN(C)CCCNC(=O)C(c1cccnc1)N(C(=O)[C@H]1CCCN1C#N)c1ccc(C(C)(C)C)cc1` (stereo partly drawn) [Compound 455] the EC50 ([1]; 229E Mpro EC50) was < 2000 nM, the IC50 [2] was 2000 to 10000 nM and the IC50 [3, 4] was 10 to 30 µM.
With `O=C(NC1CCC(F)(F)CC1)C(c1cncc(F)c1)N(C(=O)c1cnc[nH]1)c1ccc(C2CC2)cc1F` (single isomer, unassigned) [1336 Isomer 2, N-(4-cyclopropyl-2-fluorophenyl)-N-(2-((4,4-difluorocyclohexyl)amino)-1-(5-fluoropyridin-3-yl)-2-oxoethyl)-1H-imidazole-5-carboxamide] the EC50 ([1]; 229E Mpro EC50) was 10000 to 30000 nM, the IC50 [2] was 10000 to 30000 nM and the IC50 [3, 5] was > 30 µM.
For `N#CN1C[C@@H]2CC[C@@H]2[C@@H]1C(=O)N(c1ccc(S(F)(F)(F)(F)F)cc1)C(C(=O)NC1CCC(F)(F)CC1)c1cncc(F)c1` (single isomer, unassigned) [1097 Isomer 2], the EC50 ([1]; 229E Mpro EC50) was 2000 to 10000 nM, the IC50 [2] was 10000 to 30000 nM and the IC50 [3, 5] was 2 to 10 µM.
